{
  "source": "patent US9445979B2",
  "about": "“Hair treatment composition containing gambogic acid, ester or amide” (DSM IP ASSETS B.V., priority 2010, dated 2016)",
  "assay_type_in_all_cases": "cell-based",
  "key": {"[1]": {"system": "human hair follicles", "test": "Macroscopic analysis of hair follicle pigmentation in cultured anagen hair follicles", "conditions": "0.1 to 1 micro molar GA, 7 day culture, versus control group", "procedure": "(§1) Tissue containing human hair follicles in the growth stage (anagen) of the hair cycle were obtained from elective facial surgery interventions. Hair follicles were isolated and maintained in culture according to methods well established in the art (Philpott et al. 1990, J Cell Sci. 97: 463-471). Gambogic amide (GA) was administered to pigmented cultured anagen VI hair follicle every other day over a culture period of 7 days in various concentrations comprised between 10 nano molar and 1 micro molar and compared to a control group without addition of GA."}, "[2]": {"system": "melanocytes in human hair follicles", "test": "Immunohistochemical analysis of melanocytes in cultured hair follicles (NKI-beteb, Ki67, Trp2, cKit)", "source_text": "Number of melanocytes in the hair follicle can be evaluated by standard methods e.g.: immunohistochemical staining of the melanocytes with the pan-melanocyte marker NKI-beteb following by counting the NKI-beteb+ cells.\nDifferentiation and migration of melanocytes from the hair sheath to the hair matrix can be measured by immunohistochemical staining of c-kit+ melanocytes in the hair follicle, and by assessing their distribution within the hair follicle.\nas §1\nImmunohistochemical analysis of hair follicle was performed according to standard methods. Immunohistochemical staining of the pan-melanocyte marker NKI-beteb and the proliferation marker Ki67 was used to asses total number of melanocytes in cultured follicles in presence of GA. […] This increase was dose dependent. […]"}, "[3]": {"system": "human hair follicles", "test": "Hair shaft elongation, hair cycle progression and toxicity in cultured human anagen VI hair follicles", "procedure": "as §1\nHair shaft elongation was measured as a way to assess possible hair growth promoting or inhibiting effects of GA. […] It is therefore concluded from this first observation that the dose range in which GA can be used is between 10 nano molar and 1 micro molar, and that GA can be used as a hair growth promoting or restoring agent."}},
  "data": [
    {"smiles": "CC(C)=CCC[C@]1(C)C=Cc2c(O)c3c(c(CC=C(C)C)c2O1)O[C@]12C(=C[C@@H]4C[C@H]1C(C)(C)O[C@@]2(C/C=C(/C)C(N)=O)C4=O)C3=O", "note": "[GA, 2-Butenamide, 2-methyl-4-[(1R,3aS,5S,11R,14aS)-3a,4,5,7-tetrahydro-8-hydroxy-3,3,11-trimethyl-13-(3-methyl-2-buten-1-yl)-11-(4-methyl-3-penten-1-yl)-7,15-dioxo-1,5-methano-1H,3H,11H-furo[3,4-g]pyrano[3,2-b]xanthen-1-yl]-, (2Z)-]", "values": [
      {"measurement": "hair follicle pigmentation (macroscopic analysis)", "setting": "[1]", "result": "clear and significant improvement of hair follicle pigmentation"},
      {"measurement": "total number of melanocytes (NKI-beteb and Ki67 staining)", "setting": "[2]; between 0.1 and 0.5 micro molar, hair follicles that remained in the anagen stage", "result": "total number of melanocytes was increased"},
      {"measurement": "cKit labeling (marker for migrating, activated early melanocytes)", "setting": "[2]; hair follicles treated between 0.1 and 1 micro molar GA", "result": "most pronouncedly found"},
      {"measurement": "signs of toxicity", "setting": "[3]; concentrations as high as 1 micro", "result": "No signs of toxicity were observed"},
      {"measurement": "hair shaft elongation compared to control", "setting": "[3]; concentrations between 0.1 and 1 micro molar, 7 days culture", "result": "increase in hair shaft elongation"},
      {"measurement": "hair cycle progression", "setting": "[3]; with the application of GA, 7 days culture", "result": "no hair cycle progression was observed"}
    ]}
  ]
}
